Assay results from ChEMBL document CHEMBL1201862, “PubChem BioAssay data set” (2004).
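Briefly, cells in 96-well plates were exposed to five compound concentrations for 48 h, and endpoints were estimated by linear interpolation. Here, GI50 denotes the concentration required for 50% inhibition of growth.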 Activity calls are given as the source filed them. Rule as the data show it: active = GI50 up to about 1.1 µM and inactive = higher.

How the values were obtained:
Test in all cases: NCI-60 cell line screen, 48 h
PC-3 = test system: PC-3
HT-29 = test system: HT-29
DU-145 = test system: DU-145
HCT-116 = test system: HCT-116
SF-539 = test system: SF-539
SNB-19 = test system: SNB-19
COLO 205 = test system: COLO 205
M14 = test system: M14
EKVX = test system: EKVX
SNB-75 = test system: SNB-75
UACC-257 = test system: UACC-257
NCI-H460 = test system: NCI-H460
SK-MEL-28 = test system: SK-MEL-28
A549 = test system: A549
HL-60 = test system: HL-60
MOLT-4 = test system: MOLT-4
HCT-15 = test system: HCT-15
A498 = test system: A498
RPMI-8226 = test system: RPMI-8226

Structure (SMILES)	GI50 (PC-3)	GI50 (HT-29)	GI50 (DU-145)	GI50 (HCT-116)	GI50 (SF-539)	GI50 (SNB-19)	GI50 (COLO 205)	GI50 (M14)	GI50 (EKVX)	GI50 (SNB-75)	GI50 (UACC-257)	GI50 (NCI-H460)	GI50 (SK-MEL-28)	GI50 (A549)	GI50 (HL-60)	GI50 (MOLT-4)	GI50 (HCT-15) [µM]	GI50 (A498)	GI50 (RPMI-8226)
C/C(=C\COP(=O)(O)OP(=O)(O)O)CC/C=C(\C)CNc1c(F)c(F)c(F)c(F)c1F	67.3 µM (inactive)	> 58.3 µM (inactive)	> 67.6 µM (inactive)	> 25.5 µM (inactive)	97.1 µM (inactive)	> 100 µM (inactive)	> 100 µM (inactive)	> 100 µM (inactive)	> 54.3 µM (inactive)	1.69 µM (inactive)	> 70.3 µM (inactive)	> 100 µM (inactive)	> 100 µM (inactive)	> 48.6 µM (inactive)	> 100 µM (inactive)	> 100 µM (inactive)	> 100		
O=C(NCc1ccccc1)c1cnc(Cl)cn1		33.2 µM (inactive)	> 100 µM (inactive)	79.8 µM (inactive)	> 100 µM (inactive)	63.8 µM (inactive)	> 100 µM (inactive)	60.8 µM (inactive)	> 100 µM (inactive)	29.7 µM (inactive)	53 µM (inactive)	> 100 µM (inactive)	> 100 µM (inactive)	> 100 µM (inactive)	> 100 µM (inactive)	27.1 µM (inactive)	23.1	> 100 µM (inactive)	44.2 µM (inactive)
COc1ccccc1NC(=O)CC(=O)N1N=C(c2ccccc2)C(/N=N/c2ccc(Cl)cc2)C1=O (stereo not given)		42.7 µM (inactive)		30.1 µM (inactive)	36.8 µM (inactive)	36 µM (inactive)	71.4 µM (inactive)	59.8 µM (inactive)	37.2 µM (inactive)	19.7 µM (inactive)	65 µM (inactive)	34.8 µM (inactive)	37 µM (inactive)	25.1 µM (inactive)	52 µM (inactive)	41.1 µM (inactive)	58.6	15.2 µM (inactive)	> 100 µM (inactive)
Cc1ccc(SCC(OCn2cnc3c(N)ncnc32)[C@H](C)F)cc1 (stereo not given in full)	> 100 µM (inactive)	> 100 µM (inactive)	> 100 µM (inactive)	> 100 µM (inactive)	> 100 µM (inactive)	> 100 µM (inactive)	> 100 µM (inactive)	> 100 µM (inactive)		> 100 µM (inactive)	> 100 µM (inactive)	> 100 µM (inactive)	> 100 µM (inactive)	> 100 µM (inactive)	> 100 µM (inactive)	> 100 µM (inactive)	> 100		> 100 µM (inactive)
COc1cccc2nc3c(C(=O)NCCN(C)C)cccc3nc12		4.63 µM (inactive)		3.79 µM (inactive)	4.27 µM (inactive)	17.4 µM (inactive)	5.2 µM (inactive)	13.4 µM (inactive)	12.6 µM (inactive)	12.4 µM (inactive)	6.03 µM (inactive)	3.78 µM (inactive)	13.8 µM (inactive)	7.35 µM (inactive)	4.51 µM (inactive)	3.61 µM (inactive)	7	9.27 µM (inactive)	6.49 µM (inactive)
O=C1CC(NCc2ccccc2)c2c(Cl)sc(Cl)c21 (stereo not given)	17.3 µM (inactive)	28.2 µM (inactive)	35.8 µM (inactive)	15.1 µM (inactive)	27.2 µM (inactive)	33.7 µM (inactive)	21.6 µM (inactive)	21.8 µM (inactive)	37.5 µM (inactive)	29.8 µM (inactive)	19.6 µM (inactive)	> 61.4 µM (inactive)	28.1 µM (inactive)	33.3 µM (inactive)	17.2 µM (inactive)	4.23 µM (inactive)	20.1	> 60.3 µM (inactive)	2.26 µM (inactive)
Cn1cnc([N+](=O)[O-])c1[Se]c1ncnc2nc[nH]c12	20.6 µM (inactive)	10 µM (inactive)	19.1 µM (inactive)	2.34 µM (inactive)	13.4 µM (inactive)	24 µM (inactive)	15.1 µM (inactive)	5.47 µM (inactive)	21.2 µM (inactive)	19.6 µM (inactive)	2.04 µM (inactive)	22.1 µM (inactive)	3.79 µM (inactive)	27.5 µM (inactive)		4.71 µM (inactive)	15.6	3.59 µM (inactive)	5.01 µM (inactive)
[N-]=[N+]=C1C(=O)C2CC3CC1CC2C3 (stereo not given)		> 100 µM (inactive)		> 100 µM (inactive)	> 100 µM (inactive)	> 100 µM (inactive)	> 100 µM (inactive)	> 100 µM (inactive)	> 100 µM (inactive)	> 100 µM (inactive)	> 100 µM (inactive)	> 100 µM (inactive)	> 100 µM (inactive)	> 100 µM (inactive)	> 100 µM (inactive)	> 100 µM (inactive)	> 100	> 100 µM (inactive)	> 100 µM (inactive)
